US20200397901A1, “PHOTORESPONSIVE SMOOTHENED LIGAND” (The University of Tokyo, priority 2018, published 2020)
One block for each compound: values may come before it.

Columns and labels:
[1] = Photolysis kinetic analysis of caged SAG using HPLC (365 nm light); type: physicochemical; conditions: 100 μM caged SAG in PBS:DMSO=9:1, light at 365 nm, 0 to 8 J/cm^2, HPLC
Protocol: 100 μM Caged SAG (PBS:DMSO=9:1) was irradiated with a light at a wavelength of 365 nm at an energy intensity of 0 to 8 J/cm^2. Each sample was analyzed according to HPLC (5-C18-AR-II column, at 0 min, CH3CN:H2O=5:95, at 8 min, 30:70, and then at 15 min, 0:100). Each fraction obtained by HPLC was recovered, and was then analyzed according to ESI spectrometry.

[2] = tested on: ventral cerebrum markers NKX2.1 and MASH1 in cerebral organoid; experiment: Expression of ventral cerebrum markers in cerebral organoids, quantitative PCR; type: cell-based, human
Protocol: (§1) The cell line iPSC 409B2 (Cell no. HPS0076) was obtained from National University Corporation Kyoto University through RIKEN BioResource Center Cell Bank. In order to maintain the undifferentiated state, the iPS cells were cultured in an Essential 8 medium on a dish coated with vitronectin (VNT-N, Thermofisher Scientific).
(§2) A cerebral organoid was prepared according to the method described in Lancaster et al., Nat Protoc. 9: 2329-2340, 2014. Using TrypLE™ (Thermofisher Scientific), hiPSCs cultured in an E8 medium were separated into single cells, which were then reaggregated to a cell mass having a density of approximately 10,000 cells, using a […] E6 medium, in a low-adhesion 96-well round bottom plate.
(§3) To the E6 medium, FGF2 (5 ng/mL, 0 to 4 days after initiation of the culture) and a ROCK inhibitor (Thiazovivine, 1μM, 0 to 4 days after initiation of the culture) were added. The medium was exchanged with a fresh one at 2 and 4 days after initiation of the culture. At 6 days after initiation of the culture, the medium was exchanged with a neural differentiation medium (DMEM/F12, 1% N2 supplement, insulin, 1% GlutaMax supplement, 1% NEAA, 1% penicillin-streptomycin, and 1 μg/mL heparin) containing SAG, caged SAG (photoresponsive protective group-binding SAG), or caged SAG before or after UV irradiation. When caged SAG was added, the culture was irradiated with a light for 15 minutes, using a halogen lamp. At 6, 8, and 10 days after initiation of the culture, the medium was exchanged with a fresh one.
Three types of organoids cultured under individual conditions were recovered at 11 days after initiation of the culture, and were then subjected to qPCR. Each organoid was embedded in a Matrigel droplet (25 μl), and was then transferred on a 60-mm dish containing a brain differentiation medium (DMEM/F12 : Neurobasal™ media=1:1, which was supplemented with a 0.5% N2 supplement, a 1% GlutaMax supplement, 0.5% NEAA, 1% penicillin-streptomycin, insulin, and a 1% B27 supplement (not containing vitamin A)). At 15 days after initiation of the culture, the medium was exchanged with a brain differentiation medium supplemented with a vitamin A-containing B27 supplement, and was then transferred into an Orbital Shaker. Thereafter, the medium was exchanged with a fresh one, every 4 or 5 days, until 30 days after initiation of the culture.
(§4) Total RNA was extracted using TriPure Isolation Reagent kit (Roche Diagnosis). cDNA was synthesized using SuperScript (registered trademark) IV Reverse Transcriptase (Invitrogen). Quantitative PCR was carried out using KAPA SYBR Fast qPCR kit (KAPA Biosystems). The data were standardized with respect to the expression level of GAPDH.

[3] = tested on: ventral cerebrum markers NKX2.1 and MASH1 in cerebral organoid; experiment: Immunohistostaining of cerebral organoids with anti-NKX2.1 and anti-MASH1 antibody; type: cell-based, human
Protocol: as §1, §2, §3
Three types of organoids cultured under individual conditions were recovered at 11 days after initiation of the culture, and were then subjected to qPCR. […]
Thereafter, the organoid was cut into a frozen section with a size of […] and was recovered on a slide glass. […] A fluorescent image was obtained using an inverted fluorescence microscope equipped with a CMOS camera (Zyla4.2, Andor).

[4] = tested on: hedgehog signal downstream gene Gli in NIH-3T3 cells; experiment: Hedgehog signal assay in NIH-3T3 cells (Gli expression, quantitative PCR); type: cell-based
Protocol: (§5) NIH-3T3 cells were allowed to grow in DMEM (supplemented with 10% FBS, glutamine, penicillin, and streptomycin). In order to perform a hedgehog signal assay, the cells that had been cultured to reach confluent were cultured in a starvation-induced medium (DMEM; serum not added) overnight, so that the cells were in a starved state. Subsequently, the medium was exchanged with a starvation-induced medium supplemented with SAG, caged SAG, SANT75, caged SANT75, or the like. Using a halogen lamp, the cells were irradiated with a light for 15 minutes. Thereafter, total RNA was extracted from the NIH-3T3 cells cultured for 6 hours, and was then subjected to real-time PCR.
as §4

Smoothened = Smoothened (Mus musculus, UniProt P56726); conditions: previously reported, Chen et al., Proc. Natl. Acad Sci, 99: 14071-14076, 2002; cited from earlier work
[5] = tested on: hedgehog signals (Glil expression); experiment: Inhibition of SAG-induced hedgehog signals (Glil expression) by antagonist; type: cell-based; conditions: SAG 100 nM and SANT75 1 μM simultaneously
Protocol: as §5, §4

Sequence of Smoothened (P56726 33-793): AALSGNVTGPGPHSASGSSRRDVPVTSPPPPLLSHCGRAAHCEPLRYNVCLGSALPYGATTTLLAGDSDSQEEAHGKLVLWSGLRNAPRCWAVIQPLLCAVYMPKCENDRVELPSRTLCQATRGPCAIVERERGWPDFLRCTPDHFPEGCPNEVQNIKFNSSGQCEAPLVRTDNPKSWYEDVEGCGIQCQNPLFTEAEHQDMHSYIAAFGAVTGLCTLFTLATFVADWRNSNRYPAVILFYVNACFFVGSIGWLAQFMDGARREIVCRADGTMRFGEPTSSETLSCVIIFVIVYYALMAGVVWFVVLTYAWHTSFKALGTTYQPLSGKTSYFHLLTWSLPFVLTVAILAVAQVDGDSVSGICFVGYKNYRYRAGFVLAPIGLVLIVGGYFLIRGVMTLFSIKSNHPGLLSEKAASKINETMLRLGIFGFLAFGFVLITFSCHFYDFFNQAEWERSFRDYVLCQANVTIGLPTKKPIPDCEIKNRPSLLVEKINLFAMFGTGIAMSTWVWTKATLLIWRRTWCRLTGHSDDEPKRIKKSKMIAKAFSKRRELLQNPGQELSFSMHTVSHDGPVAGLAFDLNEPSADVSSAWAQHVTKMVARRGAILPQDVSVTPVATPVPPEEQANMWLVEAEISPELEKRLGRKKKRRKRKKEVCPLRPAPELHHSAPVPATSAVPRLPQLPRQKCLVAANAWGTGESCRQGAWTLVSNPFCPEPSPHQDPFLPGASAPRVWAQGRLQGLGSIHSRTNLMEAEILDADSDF

energy intensity at which photolysis was almost completed [1]: 2-4 J/cn^2
SMILES: COc1cc(C(C)OC(=O)N(C)C2CCC(N(Cc3cccc(-c4ccncc4)c3)C(=O)c3sc4ccccc4c3Cl)CC2)c([N+](=O)[O-])cc1OCCCC(=O)O (centres unmarked) [caged SAG]
Smo agonistic activity ([2]; as a result of light irradiation): the same level of Smo agonistic activity as that of SAG
expression levels of NKX2.1 and MASH1 ([2]; caged SAG after completion of light irradiation, 100 nM, quantitative PCR): increased
expression of the ventral cerebrum markers (NKX2.1 and MASH1) ([2]; caged SAG before light irradiation, 100 nM, quantitative PCR): not induced
activity of caged SAG ([2]; photodissociable protective group bound, without light irradiation): suppressed
expression levels of NKX2.1 and MASH1 ([3]; caged SAG after completion of light irradiation (100 nM)): increased
expression levels of NKX2.1 and MASH1 ([3]; cerebral organoid cultured in the presence of caged SAG irradiated with a light): increased
expression level of Gli ([4]; 100 nM caged SAG, cells irradiated with a light): increased
expression of Gli ([4]; 100 nM caged SAG, cells not irradiated with a light): could not be confirmed
activation (expression level of Gli) ([4]; caged SAG at 1 nM, with light irradiation): only a little activation
activation (expression level of Gli) ([4]; caged SAG at 10 nM, with light irradiation): activation was observed

SMILES: CNC1CCC(N(Cc2cccc(-c3ccncc3)c2)C(=O)c2sc3ccccc3c2Cl)CC1 (centres unmarked) [SAG, reference compound]
expression levels of NKX2.1 and MASH1 ([3]; cultured in the presence of SAG (SAG(+))): increased
activation (expression level of Gli) ([4]; SAG at 1 nM): only a little activation
activation (expression level of Gli) ([4]; SAG at 10 nM): activation was observed
expression level of Gli ([4]; cells cultured in the presence of SAG): increased
EC50 (Smoothened): 3 nM

SMILES: CCCNC1CCC(N(Cc2cccc(-c3ccncc3)c2)C(=O)c2sc3ccccc3c2Cl)CC1 (centres unmarked) [SANT75]
inhibition of hedgehog signals (expression level of Glil) [5]: competitive inhibition
